Results on four compounds are retold here after patent publication US10781226B2, “Photoactivatable cancer prodrug” (Texas State University, priority 2017, dated 2020).

pEC50: −log10 of the molar value. Converted amounts (≈) assume the structure as drawn.

Data set [1] relates to A375, A431, A549, MRC-5 cells. Briefly: Photocytotoxicity assay, summary across cell lines. The data set is classed as cell-based.
Data set [2] in a line: Solubility in demineralized water. Format: physicochemical. Particulars: read-out: maximum solubility.
Data set [3] has as its system tubulin. As to conditions: polymerization enhancer control.
From the text: Raw fluorescence was normalized by initial fluorescence for each sample. Samples consists of the caged drug (not irradiated), the caged drug irradiated with green light, and the caged drug irradiated with blue light.
In this assay, increased fluorescence indicates tubulin polymerization.

As a reminder, the pEC50 is −log10 of the EC50, conventionally taken in molar units. The solubility is the concentration that dissolves in the medium under given conditions.

Compound `[NH2][Pt]([NH2])([Cl])[Cl]` [CDDP, cisplatin] had a pEC50 in data set [1] (range across all tested cell lines) of 5.51 to 6.07. Consider `F[P-](F)(F)(F)(F)F.F[P-](F)(F)(F)(F)F.O.[Ru+2].c1ccc(-c2cccc(-c3ccccn3)n2)nc1.c1ccc(-c2ccccn2)nc1` [[3](PF6)2], for which the “activity across all tested cell lines” value in data set [1] (all tested cell lines) was “no activity”. Take `CSCCCc1nc(=O)c2c(-c3ccccc3)c(C(=O)c3ccccc3)[nH]c2[nH]1` [compound 1]: the solubility in data set [2] was determined as 10 µM (≈ 4.04 µg/mL). As for `CC(=O)O[C@H]1C(=O)[C@@]2(C)[C@H]([C@H](OC(=O)c3ccccc3)[C@]3(O)C[C@H](OC(=O)[C@H](O)[C@@H](NC(=O)c4ccccc4)c4ccccc4)C(C)=C1C3(C)C)[C@]1(OC(C)=O)CO[C@@H]1C[C@@H]2O` [paclitaxel, reference compound], the tubulin polymerization result in data set [3] is reported as “induces rapid polymerization of tubulin”.
